Our source for the melting point, inhibition of growth and pest or weed control values is patent US11026427B2, “Microbiocidal oxadiazole derivatives” (SYNGENTA PARTICIPATIONS AG, priority 2016, dated 2021).

For data set [1], the system named is Glomerella lacenarium (Colletotrichum lacenarium). The data set can be described thus: Glomerella lacenarium (Colletotrichum lacenarium) liquid culture / cucumber / preventative (anthracnose). It is filed as cell-based. The conditions noted are these: 20 ppm in the applied formulation, growth inhibition measured photometrically, compared to untreated control, read-out: disease control. As for the experimental part: Mycelia fragments or conidia suspensions of a fungus prepared either freshly from liquid cultures of the fungus or from cryogenic storage, are directly mixed into nutrient broth. DMSO solutions of the test compound (max. 10 mg/ml) are diluted with 0.025% Tween20 by a factor of 50 and 10 μl of this solution is pipetted into a microtiter plate (96-well format). The nutrient broth containing the fungal spores/mycelia fragments is then added to give an end concentration of the tested compound. The test plates are incubated in the dark at 24° C. and 96% relative humidity. The inhibition of fungal growth is determined photometrically after 2 to 7 days, depending on the pathosystem, and percent antifungal activity relative to the untreated check is calculated.
Conidia of the fungus from cryogenic storage are directly mixed into nutrient broth (PDB—potato dextrose broth). After placing a (DMSO) solution of test compound into a microtiter plate (96-well format), the nutrient broth containing the fungal spores is added. The test plates are incubated at 24° C. and the inhibition of growth is measured photometrically 3 to 4 days after application.
The following compounds at 20 ppm in the applied formulation give at least 80% disease control in this test when compared to untreated control under the same conditions, which show extensive disease development.

For a further data set, the system named is Phakopsora pachyrhizi. The data set can be described thus: Phakopsora pachyrhizi / soybean / leaf disc preventative (Asian soybean rust). It is filed as in vivo. To be noted: foliar, 200 ppm in the applied formulation, compared to untreated control, read-out: disease control. Here is the method:
(§1) Leaf disks or leaf segments of various plant species are cut from plants grown in a greenhouse. The cut leaf disks or segments are placed in multiwell plates (24-well format) onto water agar. The leaf disks are sprayed with a test solution before (preventative) or after (curative) inoculation. Compounds to be tested are prepared as DMSO solutions (max. 10 mg/ml) which are diluted to the appropriate concentration with 0.025% Tween20 just before spraying. The inoculated leaf disks or segments are incubated under defined conditions (temperature, relative humidity, light, etc.) according to the respective test system. A single evaluation of disease level is carried out 3 to 14 days after inoculation, depending on the pathosystem. Percent disease control relative to the untreated check leaf disks or segments is then calculated.
Soybean leaf disks are placed on water agar in multiwell plates (24-well format) and sprayed with the formulated test compound diluted in water. One day after application leaf discs are inoculated by spraying a spore suspension on the lower leaf surface. After an incubation period in a climate cabinet of 24-36 hours in darkness at 20° C. and 75% rh leaf disc are kept at 20° C. with 12 h light/day and 75% rh. The activity of a compound is assessed as percent disease control compared to untreated when an appropriate level of disease damage appears in untreated check leaf disks (12 to 14 days after application).
(§2) The following compounds at 200 ppm in the applied formulation give at least 80% disease control in this test when compared to untreated control leaf disks under the same conditions, which show extensive disease development.

Data set [2] relates to Puccinia recondita f. Sp. tritici. The data set can be described thus: Puccinia recondita f. sp. tritici / wheat / leaf disc preventative (brown rust). The format is in vivo. To be noted: foliar, 200 ppm in the applied formulation, compared to untreated control, read-out: disease control. As for the experimental part: as §1, with “calculated. Wheat leaf segments cv. Kanzler were placed on agar in multiwell plates (24-well format) and sprayed with the formulated test compound diluted in water. The leaf disks were inoculated with a spore suspension of the fungus 1 day after application. The inoculated leaf segments were incubated at 19° C. and 75% relative humidity (rh) under a light regime of 12 hours light/12 hours darkness in a climate cabinet and the activity of a compound was assessed as percent disease control compared to untreated when an appropriate level of disease damage appears in untreated check leaf segments (7 to 9 days after application). The following compounds at 200 ppm in the applied formulation give at least 80% disease control in this test when compared to untreated control leaf disks under the same conditions, which show extensive disease development.” for “calculated.”

The test system is the same in data set [3]. The data set can be described thus: Puccinia recondita f. sp. tritici / wheat / leaf disc curative (brown rust). It is filed as in vivo. To be noted: foliar, 200 ppm in the applied formulation, compared to untreated control, read-out: disease control. Here is the method:
as §1
Wheat leaf segments cv. Kanzler are placed on agar in multiwell plates (24-well format). The leaf segments are then inoculated with a spore suspension of the fungus. Plates were stored in darkness at 19° C. and 75% relative humidity. The formulated test compound diluted in water was applied 1 day after inoculation. The leaf segments were incubated at 19° C. and 75% relative humidity under a light regime of 12 hours light/12 hours darkness in a climate cabinet and the activity of a compound was assessed as percent disease control compared to untreated when an appropriate level of disease damage appears in untreated check leaf segments (6 to 8 days after application).
as §2

Regarding `CCCCC(=O)c1ccc(-c2noc(C(F)(F)F)n2)cc1` [Compound 1.5, 1-[4-[5-(trifluoromethyl)-1,2,4-oxadiazol-3-yl]phenyl]pentan-1-one], the melting point is 57 to 61 °C. In data set [1], the inhibition of growth at 20 ppm is no less than 80%.

As for `COc1ccc(C(=O)c2ccc(-c3noc(C(F)(F)F)n3)cc2)cn1` [Compound 1.15, (6-methoxy-3-pyridyl)-[4-[5-(trifluoromethyl)-1,2,4-oxadiazol-3-yl]phenyl]methanone], the melting point was in the range of 105 to 110 °C. Moreover, the inhibition of growth at 20 ppm in data set [1] is no less than 80%. For the same molecule, the pest or weed control at 200 ppm in the data set with Phakopsora pachyrhizi was no less than 80%.

For `CCOC(=O)c1cnn(CC(=O)c2ccc(-c3noc(C(F)(F)F)n3)cc2)c1` [Compound 1.19, ethyl 1-[2-oxo-2-[4-[5-(trifluoromethyl)-1,2,4-oxadiazol-3-yl]phenyl]ethyl]pyrazole-4-carboxylate], the melting point lay within 153.6 to 156.1 °C.

Molecule `O=C(c1ccc(-c2noc(C(F)(F)F)n2)cc1)c1ncc(C(F)(F)F)s1` [Compound 1.21, [4-[5-(trifluoromethyl)-1,2,4-oxadiazol-3-yl]phenyl]-[5-(trifluoromethyl)thiazol-2-yl]methanone] yielded a melting point of 90 to 94 °C.

`CCOC(=O)c1cc(C(=O)c2ccc(-c3noc(C(F)(F)F)n3)cc2)on1` [Compound 1.22, ethyl 5-[4-[5-(trifluoromethyl)-1,2,4-oxadiazol-3-yl]benzoyl]isoxazole-3-carboxylate] gave a melting point of 197 to 200 °C. In addition, the inhibition of growth at 20 ppm in data set [1] was no less than 80%.

`O=C(c1ccc(-c2noc(C(F)(F)F)n2)cc1)c1cnc(C(F)(F)F)s1` [Compound 1.23, [4-[5-(trifluoromethyl)-1,2,4-oxadiazol-3-yl]phenyl]-[2-(trifluoromethyl)thiazol-5-yl]methanone] gave a melting point of 126 to 132 °C.

Molecule `CCOC(=O)c1csc(C(=O)c2ccc(-c3noc(C(F)(F)F)n3)cc2)n1` [Compound 1.25, ethyl 2-[4-[5-(trifluoromethyl)-1,2,4-oxadiazol-3-yl]benzoyl]thiazole-4-carboxylate] showed a melting point of 78 to 82 °C.

Molecule `O=C(c1ccc(-c2noc(C(F)(F)F)n2)cc1)c1cnn(C(F)(F)F)c1` [Compound 1.26, [4-[5-(trifluoromethyl)-1,2,4-oxadiazol-3-yl]phenyl]-[1-(trifluoromethyl)pyrazol-4-yl]methanone] registered a melting point of 98 to 102 °C. For the same molecule, the pest or weed control at 200 ppm in the data set on Phakopsora pachyrhizi was no less than 80%.

Regarding `O=C(c1ccc(-c2noc(C(F)(F)F)n2)cc1)c1ccc(F)cc1F` [Compound 1.28, (2,4-difluorophenyl)-[4-[5-(trifluoromethyl)-1,2,4-oxadiazol-3-yl]phenyl]methanone], the melting point lay within 92 to 95 °C. In data set [1], the inhibition of growth at 20 ppm was no less than 80%. Also, the pest or weed control at 200 ppm in the data set on Phakopsora pachyrhizi was no less than 80%.

Turning to `O=C(c1ccc(-c2noc(C(F)(F)F)n2)cc1)c1cccc(OC(F)F)c1` [Compound 1.29, [3-(difluoromethoxy)phenyl]-[4-[5-(trifluoromethyl)-1,2,4-oxadiazol-3-yl]phenyl]methanone], the melting point lay within 85 to 88 °C. In addition, in data set [1], the inhibition of growth at 20 ppm was no less than 80%. The pest or weed control at 200 ppm in the data set with Phakopsora pachyrhizi is no less than 80%.

Regarding `CCOC(=O)c1cnc(C(=O)c2ccc(-c3noc(C(F)(F)F)n3)cc2)nc1C` [Compound 1.31, ethyl 4-methyl-2-[4-[5-(trifluoromethyl)-1,2,4-oxadiazol-3-yl]benzoyl]pyrimidine-5-carboxylate], the melting point is 92 to 93 °C. The inhibition of growth at 20 ppm in data set [1] was no less than 80%.

In turn, `O=C(c1ccc(-c2noc(C(F)(F)F)n2)cc1)c1cscn1` [Compound 1.32, thiazol-4-yl-[4-[5-(trifluoromethyl)-1,2,4-oxadiazol-3-yl]phenyl]methanone] had a melting point of 68 to 74 °C. Also, in data set [1], the inhibition of growth at 20 ppm is no less than 80%. Further, the pest or weed control at 200 ppm with Phakopsora pachyrhizi is no less than 80%.

Take `Cc1cncc(C(=O)c2ccc(-c3noc(C(F)(F)F)n3)cc2)c1` [Compound 1.36, (5-methyl-3-pyridyl)-[4-[5-(trifluoromethyl)-1,2,4-oxadiazol-3-yl]phenyl]methanone]: the melting point lay within 80 to 84 °C.

The molecule `CC(C)(C)C(O)c1ccc(-c2noc(C(F)(F)F)n2)cc1` (stereo not shown) [Compound 2.1, 2,2-dimethyl-1-[4-[5-(trifluoromethyl)-1,2,4-oxadiazol-3-yl]phenyl]propan-1-ol] registered a melting point of 60 to 75 °C. Also, the inhibition of growth at 20 ppm in data set [1] is no less than 80%. In addition, the pest or weed control at 200 ppm with Phakopsora pachyrhizi is no less than 80%.

In turn, `N#CC(O)c1ccc(-c2noc(C(F)(F)F)n2)cc1` (stereo not shown) [Compound 2.11, 2-hydroxy-2-[4-[5-(trifluoromethyl)-1,2,4-oxadiazol-3-yl]phenyl]acetonitrile] displayed a melting point of 79 to 80 °C. Also, the inhibition of growth at 20 ppm in data set [1] was no less than 80%. Further, the pest or weed control at 200 ppm in data set [2] is no less than 80%.

Turning to `OC(c1ccc(-c2noc(C(F)(F)F)n2)cc1)c1ccc(F)cc1F` (stereo not shown) [Compound 2.15, (2,4-difluorophenyl)-[4-[5-(trifluoromethyl)-1,2,4-oxadiazol-3-yl]phenyl]methanol], the inhibition of growth at 20 ppm in data set [1] was no less than 80%. Moreover, the pest or weed control at 200 ppm (in data set [2]; with Phakopsora pachyrhizi) was no less than 80% throughout.

In the case of `CCC(O)c1ccc(-c2noc(C(F)(F)F)n2)cc1` (stereo not shown) [Compound 2.16, 1-[4-[5-(trifluoromethyl)-1,2,4-oxadiazol-3-yl]phenyl]propan-1-ol], the melting point was in the range of 66 to 68 °C. The inhibition of growth at 20 ppm in data set [1] is no less than 80%.

As to `C=CCC(O)c1ccc(-c2noc(C(F)(F)F)n2)cc1` (stereo not shown) [Compound 2.17, 1-[4-[5-(trifluoromethyl)-1,2,4-oxadiazol-3-yl]phenyl]but-3-en-1-ol], the melting point is 45 to 48 °C. For the same molecule, in data set [1], the inhibition of growth at 20 ppm was no less than 80%. Besides, the pest or weed control at 200 ppm in the data set with Phakopsora pachyrhizi was no less than 80%.

As for `CCOC(=O)c1csc(C(O)c2ccc(-c3noc(C(F)(F)F)n3)cc2)n1` (stereo not shown) [Compound 2.19, ethyl 2-[hydroxy-[4-[5-(trifluoromethyl)-1,2,4-oxadiazol-3-yl]phenyl]methyl]thiazole-4-carboxylate], the melting point lay in the range of 118 to 122 °C. For the same molecule, in data set [2], the pest or weed control at 200 ppm was no less than 80%.

Turning to `C=CCC(O)(c1ccc(-c2noc(C(F)(F)F)n2)cc1)c1cc(C)no1` (stereo not shown) [Compound 2.23, 1-(3-methylisoxazol-5-yl)-1-[4-[5-(trifluoromethyl)-1,2,4-oxadiazol-3-yl]phenyl]but-3-en-1-ol], the pest or weed control at 200 ppm in data set [3] was no less than 80%.

Regarding `Cc1cc(C(O)(c2ccc(-c3noc(C(F)(F)F)n3)cc2)C(C)C)on1` (stereo not shown) [Compound 2.29, 2-methyl-1-(3-methylisoxazol-5-yl)-1-[4-[5-(trifluoromethyl)-1,2,4-oxadiazol-3-yl]phenyl]propan-1-ol], the pest or weed control at 200 ppm in data set [2] is no less than 80%.
